{"source": "paper PMC9684079", "about": "“Pharmacological targeting of glutamatergic neurons within the brainstem for weight reduction” (Nature Metabolism, 2022)", "assay_in_all_cases": "biochemical", "settings_in_all_cases": "read-out: % Inhibition", "key": {"Adenosine A1": {"target": "T1, Adenosine A1 (Homo sapiens, UniProt P30542)", "T1 construct": "gene ADORA1", "T1 sequence (P30542 whole entry)": "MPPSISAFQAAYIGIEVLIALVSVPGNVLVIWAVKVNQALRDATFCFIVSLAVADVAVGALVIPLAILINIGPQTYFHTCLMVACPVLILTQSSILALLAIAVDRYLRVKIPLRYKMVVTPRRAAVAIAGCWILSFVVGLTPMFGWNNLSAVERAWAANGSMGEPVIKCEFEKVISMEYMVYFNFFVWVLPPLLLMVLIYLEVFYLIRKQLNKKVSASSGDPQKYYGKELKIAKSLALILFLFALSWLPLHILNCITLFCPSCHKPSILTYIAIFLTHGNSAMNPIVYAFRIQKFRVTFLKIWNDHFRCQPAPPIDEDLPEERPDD", "parameters": "Cerep/Eurofins selectivity panel, receptors, channels and transporters, per cent inhibition at 10 uM"}, "Adenosine A2A": {"target": "T2, Adenosine A2A (Homo sapiens, UniProt P29274)", "T2 construct": "gene ADORA2A", "T2 sequence (P29274 whole entry)": "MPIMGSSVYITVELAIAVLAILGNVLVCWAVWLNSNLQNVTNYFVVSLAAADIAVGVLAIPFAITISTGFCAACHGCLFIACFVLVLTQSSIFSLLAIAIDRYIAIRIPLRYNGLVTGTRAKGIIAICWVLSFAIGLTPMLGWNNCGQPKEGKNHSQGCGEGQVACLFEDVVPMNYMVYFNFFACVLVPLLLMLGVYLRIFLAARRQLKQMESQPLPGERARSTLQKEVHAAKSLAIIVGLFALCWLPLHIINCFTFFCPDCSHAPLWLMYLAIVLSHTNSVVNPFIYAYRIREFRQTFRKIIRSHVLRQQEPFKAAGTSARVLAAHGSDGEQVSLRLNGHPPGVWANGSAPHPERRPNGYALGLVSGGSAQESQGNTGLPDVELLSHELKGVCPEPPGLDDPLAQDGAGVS", "parameters": "Cerep/Eurofins selectivity panel, receptors, channels and transporters, per cent inhibition at 10 uM"}, "AdenosineA2B": {"target": "T3, AdenosineA2B (Homo sapiens, UniProt P29275)", "T3 construct": "gene ADORA2B", "parameters": "Cerep/Eurofins selectivity panel, receptors, channels and transporters, per cent inhibition at 10 uM"}, "Adrenergic β1": {"target": "T4, Adrenergic β1 (Homo sapiens, UniProt P08588)", "T4 construct": "gene ADRB1", "T4 sequence (P08588 whole entry)": "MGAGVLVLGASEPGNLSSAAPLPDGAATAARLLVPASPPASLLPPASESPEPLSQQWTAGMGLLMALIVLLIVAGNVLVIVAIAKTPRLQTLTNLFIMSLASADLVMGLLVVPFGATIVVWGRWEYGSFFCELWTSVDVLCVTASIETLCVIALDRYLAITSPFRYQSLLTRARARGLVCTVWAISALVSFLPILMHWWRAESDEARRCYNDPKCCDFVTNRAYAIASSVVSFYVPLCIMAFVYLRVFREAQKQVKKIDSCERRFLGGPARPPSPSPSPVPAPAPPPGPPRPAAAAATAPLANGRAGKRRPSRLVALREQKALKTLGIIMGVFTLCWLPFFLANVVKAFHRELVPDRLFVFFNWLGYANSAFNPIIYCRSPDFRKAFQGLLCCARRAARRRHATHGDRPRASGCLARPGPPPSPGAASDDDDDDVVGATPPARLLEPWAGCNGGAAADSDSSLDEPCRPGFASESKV", "parameters": "Cerep/Eurofins selectivity panel, receptors, channels and transporters, per cent inhibition at 10 uM"}, "Adrenergic β2": {"target": "T5, Adrenergic β2 (Homo sapiens, UniProt P07550)", "T5 construct": "gene ADRB2", "T5 sequence (P07550 whole entry)": "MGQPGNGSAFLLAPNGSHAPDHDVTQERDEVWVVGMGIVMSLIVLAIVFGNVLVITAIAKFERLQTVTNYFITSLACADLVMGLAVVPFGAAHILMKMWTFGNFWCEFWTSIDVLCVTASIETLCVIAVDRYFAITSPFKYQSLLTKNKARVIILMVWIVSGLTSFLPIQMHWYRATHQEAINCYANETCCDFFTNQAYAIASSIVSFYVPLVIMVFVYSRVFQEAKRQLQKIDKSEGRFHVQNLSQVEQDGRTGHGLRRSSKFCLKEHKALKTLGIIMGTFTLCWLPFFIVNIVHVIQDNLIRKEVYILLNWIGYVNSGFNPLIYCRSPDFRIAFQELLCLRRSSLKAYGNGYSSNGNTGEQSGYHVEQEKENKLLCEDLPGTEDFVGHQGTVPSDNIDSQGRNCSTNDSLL", "parameters": "Cerep/Eurofins selectivity panel, receptors, channels and transporters, per cent inhibition at 10 uM"}, "Angiotensin AT1": {"target": "T6, Angiotensin AT1 (Homo sapiens, UniProt P30556)", "T6 construct": "gene AGTR1", "parameters": "Cerep/Eurofins selectivity panel, receptors, channels and transporters, per cent inhibition at 10 uM"}, "Angiotensin AT2": {"target": "T7, Angiotensin AT2 (Homo sapiens, UniProt P50052)", "T7 construct": "gene AGTR2", "T7 sequence (P50052 whole entry)": "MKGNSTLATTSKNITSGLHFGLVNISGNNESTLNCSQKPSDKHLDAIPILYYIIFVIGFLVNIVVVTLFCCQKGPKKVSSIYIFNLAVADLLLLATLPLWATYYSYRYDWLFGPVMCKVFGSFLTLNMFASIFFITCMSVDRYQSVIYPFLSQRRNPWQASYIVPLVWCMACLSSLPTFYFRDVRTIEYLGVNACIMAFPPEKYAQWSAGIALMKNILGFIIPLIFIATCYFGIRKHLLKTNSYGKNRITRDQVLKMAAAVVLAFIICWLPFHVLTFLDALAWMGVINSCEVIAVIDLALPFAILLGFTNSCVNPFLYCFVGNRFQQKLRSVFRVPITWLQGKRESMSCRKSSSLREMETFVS", "parameters": "Cerep/Eurofins selectivity panel, receptors, channels and transporters, per cent inhibition at 10 uM"}, "Bradykinin B1": {"target": "T8, Bradykinin B1 (Homo sapiens, UniProt P46663)", "T8 construct": "gene BDKRB1", "T8 sequence (P46663 whole entry)": "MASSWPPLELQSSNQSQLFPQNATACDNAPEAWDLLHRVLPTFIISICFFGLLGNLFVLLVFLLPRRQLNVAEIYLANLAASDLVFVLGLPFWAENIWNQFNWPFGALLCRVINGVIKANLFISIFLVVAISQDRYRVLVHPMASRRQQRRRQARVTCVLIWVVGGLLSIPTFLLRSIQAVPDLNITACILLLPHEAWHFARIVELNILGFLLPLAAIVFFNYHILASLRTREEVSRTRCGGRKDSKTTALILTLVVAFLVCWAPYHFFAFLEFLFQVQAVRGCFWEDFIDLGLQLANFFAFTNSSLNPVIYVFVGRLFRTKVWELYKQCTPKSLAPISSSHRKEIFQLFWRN", "parameters": "Cerep/Eurofins selectivity panel, receptors, channels and transporters, per cent inhibition at 10 uM"}, "Cannabinoid CB1": {"target": "T9, Cannabinoid CB1 (Homo sapiens, UniProt P21554)", "T9 construct": "gene CNR1", "parameters": "Cerep/Eurofins selectivity panel, receptors, channels and transporters, per cent inhibition at 10 uM"}, "Cholecystokinin CCK2": {"target": "T10, Cholecystokinin CCK2 (Homo sapiens, UniProt P32239)", "T10 construct": "gene CCKBR", "parameters": "Cerep/Eurofins selectivity panel, receptors, channels and transporters, per cent inhibition at 10 uM"}, "Dopamine D4.2": {"target": "T11, Dopamine D4.2 (Homo sapiens, UniProt P21917)", "T11 construct": "gene DRD4; D4.2", "parameters": "Cerep/Eurofins selectivity panel, receptors, channels and transporters, per cent inhibition at 10 uM"}, "Estrogen Erα": {"target": "T12, Estrogen Erα (Homo sapiens, UniProt P03372)", "T12 construct": "gene ESR1", "parameters": "Cerep/Eurofins selectivity panel, receptors, channels and transporters, per cent inhibition at 10 uM"}, "Histamine H1": {"target": "T13, Histamine H1 (Homo sapiens, UniProt P35367)", "T13 construct": "gene HRH1", "parameters": "Cerep/Eurofins selectivity panel, receptors, channels and transporters, per cent inhibition at 10 uM"}, "Muscarinic M1": {"target": "T14, Muscarinic M1 (Homo sapiens, UniProt P11229)", "T14 construct": "gene CHRM1", "parameters": "Cerep/Eurofins selectivity panel, receptors, channels and transporters, per cent inhibition at 10 uM"}, "Muscarinic M2": {"target": "T15, Muscarinic M2 (Homo sapiens, UniProt P08172)", "T15 construct": "gene CHRM2", "parameters": "Cerep/Eurofins selectivity panel, receptors, channels and transporters, per cent inhibition at 10 uM"}, "Muscarinic M3": {"target": "T16, Muscarinic M3 (Homo sapiens, UniProt P20309)", "T16 construct": "gene CHRM3", "parameters": "Cerep/Eurofins selectivity panel, receptors, channels and transporters, per cent inhibition at 10 uM"}, "Muscarinic M4": {"target": "T17, Muscarinic M4 (Homo sapiens, UniProt P08173)", "T17 construct": "gene CHRM4", "parameters": "Cerep/Eurofins selectivity panel, receptors, channels and transporters, per cent inhibition at 10 uM"}, "Opiate δ1 (OP1, DOP)": {"target": "T18, Opiate δ1 (OP1, DOP) (Homo sapiens, UniProt P41143)", "T18 construct": "gene OPRD1", "T18 sequence (P41143 whole entry)": "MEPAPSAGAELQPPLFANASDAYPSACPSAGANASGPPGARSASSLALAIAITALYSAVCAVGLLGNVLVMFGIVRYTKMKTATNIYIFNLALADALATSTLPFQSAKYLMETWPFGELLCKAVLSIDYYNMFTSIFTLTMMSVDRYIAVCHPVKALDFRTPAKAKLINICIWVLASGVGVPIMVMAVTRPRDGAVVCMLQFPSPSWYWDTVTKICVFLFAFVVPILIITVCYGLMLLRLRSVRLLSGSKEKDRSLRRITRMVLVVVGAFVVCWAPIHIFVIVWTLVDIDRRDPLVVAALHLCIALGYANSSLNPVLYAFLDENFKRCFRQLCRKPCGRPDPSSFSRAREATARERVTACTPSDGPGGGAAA", "parameters": "Cerep/Eurofins selectivity panel, receptors, channels and transporters, per cent inhibition at 10 uM"}, "Opiate κ(OP2, KOP)": {"target": "T19, Opiate κ(OP2, KOP) (Homo sapiens, UniProt P41145)", "T19 construct": "gene OPRK1", "T19 sequence (P41145 whole entry)": "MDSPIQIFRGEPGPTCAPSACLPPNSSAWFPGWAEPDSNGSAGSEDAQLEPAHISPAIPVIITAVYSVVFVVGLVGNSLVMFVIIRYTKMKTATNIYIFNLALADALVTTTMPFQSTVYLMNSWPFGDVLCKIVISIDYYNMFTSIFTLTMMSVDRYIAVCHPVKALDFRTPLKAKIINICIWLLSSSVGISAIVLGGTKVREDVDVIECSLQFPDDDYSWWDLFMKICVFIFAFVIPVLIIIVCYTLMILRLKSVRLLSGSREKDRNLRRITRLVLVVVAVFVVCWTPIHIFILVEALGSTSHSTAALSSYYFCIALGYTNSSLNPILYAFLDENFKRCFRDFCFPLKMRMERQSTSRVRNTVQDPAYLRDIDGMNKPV", "parameters": "Cerep/Eurofins selectivity panel, receptors, channels and transporters, per cent inhibition at 10 uM"}, "Opiate μ(OP3, MOP)": {"target": "T20, Opiate μ(OP3, MOP) (Homo sapiens, UniProt P35372)", "T20 construct": "gene OPRM1", "T20 sequence (P35372 whole entry)": "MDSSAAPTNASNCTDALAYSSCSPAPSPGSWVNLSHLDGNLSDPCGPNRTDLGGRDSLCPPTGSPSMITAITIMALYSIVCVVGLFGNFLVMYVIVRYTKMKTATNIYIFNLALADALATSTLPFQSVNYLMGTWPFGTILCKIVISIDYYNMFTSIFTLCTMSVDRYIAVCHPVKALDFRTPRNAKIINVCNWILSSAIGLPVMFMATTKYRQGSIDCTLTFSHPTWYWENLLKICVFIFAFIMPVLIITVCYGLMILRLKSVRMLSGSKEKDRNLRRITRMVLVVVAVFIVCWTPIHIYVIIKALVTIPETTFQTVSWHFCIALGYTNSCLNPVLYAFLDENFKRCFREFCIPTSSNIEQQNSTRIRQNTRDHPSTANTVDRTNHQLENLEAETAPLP", "parameters": "Cerep/Eurofins selectivity panel, receptors, channels and transporters, per cent inhibition at 10 uM"}, "Tachykinin NK1": {"target": "T21, Tachykinin NK1 (Homo sapiens, UniProt P25103)", "T21 construct": "gene TACR1", "parameters": "Cerep/Eurofins selectivity panel, receptors, channels and transporters, per cent inhibition at 10 uM"}, "[1]": {"target": "T22, Transporter, Norepinephrine (NET) (Homo sapiens, UniProt P23975)", "T22 construct": "gene SLC6A2", "parameters": "Cerep/Eurofins selectivity panel, receptors, channels and transporters, per cent inhibition at 10 uM"}, "Vasopressin V1b": {"target": "T23, Vasopressin V1b (Homo sapiens, UniProt P47901)", "T23 construct": "gene AVPR1B", "parameters": "Cerep/Eurofins selectivity panel, receptors, channels and transporters, per cent inhibition at 10 uM"}, "Vasopressin V2": {"target": "T24, Vasopressin V2 (Homo sapiens, UniProt P30518)", "T24 construct": "gene AVPR2", "parameters": "Cerep/Eurofins selectivity panel, receptors, channels and transporters, per cent inhibition at 10 uM"}, "[2]": {"target": "T25, Nitric Oxide Synthase, neuronal (nNOS) (Rattus norvegicus, UniProt P29476)", "T25 construct": "gene Nos1", "T25 sequence (P29476 whole entry)": "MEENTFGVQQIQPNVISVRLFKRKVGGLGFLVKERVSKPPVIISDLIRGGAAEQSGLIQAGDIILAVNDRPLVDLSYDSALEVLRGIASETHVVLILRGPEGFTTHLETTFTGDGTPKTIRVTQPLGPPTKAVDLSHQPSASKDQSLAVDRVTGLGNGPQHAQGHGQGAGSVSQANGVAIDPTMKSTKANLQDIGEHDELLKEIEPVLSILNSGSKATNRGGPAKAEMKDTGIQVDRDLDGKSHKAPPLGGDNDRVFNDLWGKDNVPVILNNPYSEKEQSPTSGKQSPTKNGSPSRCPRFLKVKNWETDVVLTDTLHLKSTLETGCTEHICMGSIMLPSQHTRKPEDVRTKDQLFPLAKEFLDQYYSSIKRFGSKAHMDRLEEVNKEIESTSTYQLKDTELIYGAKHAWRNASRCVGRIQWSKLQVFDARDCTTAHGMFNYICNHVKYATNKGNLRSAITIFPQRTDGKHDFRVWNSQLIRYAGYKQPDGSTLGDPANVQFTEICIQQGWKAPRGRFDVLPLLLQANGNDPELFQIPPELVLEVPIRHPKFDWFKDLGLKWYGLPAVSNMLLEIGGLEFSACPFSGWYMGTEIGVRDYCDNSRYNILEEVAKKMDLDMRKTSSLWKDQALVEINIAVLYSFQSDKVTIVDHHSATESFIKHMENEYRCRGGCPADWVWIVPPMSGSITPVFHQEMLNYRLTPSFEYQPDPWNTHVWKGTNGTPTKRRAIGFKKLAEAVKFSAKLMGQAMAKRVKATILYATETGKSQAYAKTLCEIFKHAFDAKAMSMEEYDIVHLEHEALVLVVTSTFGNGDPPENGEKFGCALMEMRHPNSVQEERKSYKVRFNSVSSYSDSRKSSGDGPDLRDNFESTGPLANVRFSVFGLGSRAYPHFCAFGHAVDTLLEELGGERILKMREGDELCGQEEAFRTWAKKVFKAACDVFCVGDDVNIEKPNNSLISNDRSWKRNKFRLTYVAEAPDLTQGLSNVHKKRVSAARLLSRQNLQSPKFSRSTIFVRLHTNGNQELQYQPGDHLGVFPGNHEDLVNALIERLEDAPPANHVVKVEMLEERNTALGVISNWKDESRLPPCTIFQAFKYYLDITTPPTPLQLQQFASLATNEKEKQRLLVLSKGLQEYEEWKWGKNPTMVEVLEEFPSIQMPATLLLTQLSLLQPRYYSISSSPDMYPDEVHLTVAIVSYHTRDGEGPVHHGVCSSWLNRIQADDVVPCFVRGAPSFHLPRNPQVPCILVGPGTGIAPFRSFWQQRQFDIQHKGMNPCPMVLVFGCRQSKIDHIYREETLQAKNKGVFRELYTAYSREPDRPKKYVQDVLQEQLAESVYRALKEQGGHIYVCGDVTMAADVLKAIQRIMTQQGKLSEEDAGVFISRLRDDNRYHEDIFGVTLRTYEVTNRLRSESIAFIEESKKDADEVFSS", "parameters": "Cerep/Eurofins selectivity panel, enzymes, per cent inhibition at 10 uM"}}}
{"molecule": "C[C@]1(Nc2cnc(C(F)(F)F)cn2)CCC[C@@H]1NC(=O)c1ncccc1-n1nccn1", "note": "[CVN45502]", "values": [{"measurement": "inhibition at 10 µM", "setting": "Adenosine A1", "value": 7, "unit": "%"}, {"measurement": "inhibition at 10 µM", "setting": "Adenosine A2A", "value": 2, "unit": "%"}, {"measurement": "inhibition at 10 µM", "setting": "AdenosineA2B", "value": -7, "unit": "%"}, {"measurement": "inhibition at 10 µM", "setting": "Adrenergic β1", "value": -14, "unit": "%"}, {"measurement": "inhibition at 10 µM", "setting": "Adrenergic β2", "value": 0, "unit": "%"}, {"measurement": "inhibition at 10 µM", "setting": "Angiotensin AT1", "value": -1, "unit": "%"}, {"measurement": "inhibition at 10 µM", "setting": "Angiotensin AT2", "value": 5, "unit": "%"}, {"measurement": "inhibition at 10 µM", "setting": "Bradykinin B1", "value": 4, "unit": "%"}, {"measurement": "inhibition at 10 µM", "setting": "Cannabinoid CB1", "value": 8, "unit": "%"}, {"measurement": "inhibition at 10 µM", "setting": "Cholecystokinin CCK2", "value": 5, "unit": "%"}, {"measurement": "inhibition at 10 µM", "setting": "Dopamine D4.2", "value": -9, "unit": "%"}, {"measurement": "inhibition at 10 µM", "setting": "Estrogen Erα", "value": 2, "unit": "%"}, {"measurement": "inhibition at 10 µM", "setting": "Histamine H1", "value": 2, "unit": "%"}, {"measurement": "inhibition at 10 µM", "setting": "Muscarinic M1", "value": -1, "unit": "%"}, {"measurement": "inhibition at 10 µM", "setting": "Muscarinic M2", "value": -7, "unit": "%"}, {"measurement": "inhibition at 10 µM", "setting": "Muscarinic M3", "value": -1, "unit": "%"}, {"measurement": "inhibition at 10 µM", "setting": "Muscarinic M4", "value": 10, "unit": "%"}, {"measurement": "inhibition at 10 µM", "setting": "Opiate δ1 (OP1, DOP)", "value": -4, "unit": "%"}, {"measurement": "inhibition at 10 µM", "setting": "Opiate κ(OP2, KOP)", "value": 3, "unit": "%"}, {"measurement": "inhibition at 10 µM", "setting": "Opiate μ(OP3, MOP)", "value": -3, "unit": "%"}, {"measurement": "inhibition at 10 µM", "setting": "Tachykinin NK1", "value": 12, "unit": "%"}, {"measurement": "inhibition at 10 µM", "setting": "[1]", "value": -6, "unit": "%"}, {"measurement": "inhibition at 10 µM", "setting": "Vasopressin V1b", "value": -8, "unit": "%"}, {"measurement": "inhibition at 10 µM", "setting": "Vasopressin V2", "value": -4, "unit": "%"}, {"measurement": "inhibition at 10 µM", "setting": "[2]", "value": 22, "unit": "%"}]}
